This note sets out measurements from patent US5869456A, “Use of glutathione diesters” (priority 1995, dated 1999).

For assay [1], the system named is Hamsters (liver, kidney, blood plasma). Description: Thiol levels in hamsters treated with GSH esters. The format is in vivo, Syrian hamster. Conditions: 1 hour later.
Method: Plasma Samples: 190 μl 50 mM DTPA, total 70 μ1 sample plus 3.33% SSA, 17.5 μl Tris, 10 μl of mBBr; after 20 min in the dark, 7.5 μl glacial acetic acid. Reduced Plasma Samples: 170μ 50 mM DTPA, 20 μl 16 mM DTT in 50 mM DTPA, remainder as above; the samples were agitated at room temperature for 20 min. After reduction, mBBr was added and the derivatization proceeds as above.
Other Animal Tissues. 385 μl 50 mM DTPA, 140 μl sample. 20 μl mBBr, 40 μl Tris; 20 minutes in the dark, 15 μl glacial acetic acid. Standards for all sample types were prepared using identical derivatization procedures.
Recovery of Tissues from Syrian Hamsters. Animals were anesthetized by i.p. administration of xylazine and ketamine, decapitated, and exsanguinated. Blood was mixed with 50 μl EDTA (0.5M, pH 7). Plasma was recovered by centrifugation; one-half vol. 10% SSA/0.5 mM DTPA was added. Liver: one lobe was removed, rinsed with H2 O, blotted, weighed, and homogenized in 5% SSA (0.5 Mm DTPA) (5 vol/g tissue). Kidney: one kidney was removed and decapsulated and then processed as with liver.
BSO (6 mmol/kg) was given I.P. fasted animals 2 hours prior to giving GSH, GSH-ME, or GSH-DE (5 mmol/kg); values were determined 1 hour later. […] Each value represents determinations ±S.D. on 3-4 animals.
For assay [2], the system named is Purified Human T-Lymphoctyes. The experiment in a line: Thiol levels in purified human T-lymphocytes after treatment with GSH esters. The format is cell-based. Conditions: purified T-cells, 0.3 ml 80 mM thiol to 0.9 ml cells, 37° C. As to the method:
HPLC Analysis of Cellular Thiols. […] Flow rates were 1 ml/min.
Purified T-cells were suspended in PBS. […] After incubation at 37° C. for the indicated times, cells were recovered and processed as described for PBM in Table 4.
Where values for cysteine are not reported, levels are <0.3 nmol/10^7cells (for 7 min. samples) or <0.5 nmol/10^7 cells (for 90 mni. samples).

In assay [3] the test system is Human Erythrocytes. The following applies: for Thiol Levels, thiol found GSH / Thiol Levels, Total / Thiol Levels, thiol found GSH-ME: erythrocyte suspension, 80 mM thiol added (one-third vol), 37° C. As to the method: Analysis of Erythrocyte Thiol by DTNB. Cell supernatant (40 μl) was added to 1 ml of 6 mM DTNB (in 143 mM phosphate buffer, pH 7.5, containing 6.3 mM EDTA). The change in absorbance at 412 nm after 1 min was converted to a value for total thiol using a GSH standard curve. The GSH standard were prepared in a 1:2:2 mixture of PBS: 0.435M acetic acid: 10% SSA (containing 2 mM EDTA) ("RBC Mix").
(§1) Derivatization of Cell Thiols for HPLC Analysis. Derivatization mixtures are as follows: Erythrocyte Lysates: 155 μl 50 mM DTPA (pH 7), 110 μl 3.33% SSA, total 180 μl cell supernatant plus "RBC Mix", 10 μl 0.1M mBBr (in CH3 CN), 100 μl of 2M Tris·HCl (pH 9 at room temperature). The samples were placed in the dark for 20-30 minutes at room temperature; the reaction was quenched with 90 μl of glacial acetic acid. Reduced Erythocyte Lysates. 155 μl mM DTT in 50 mM DTPA (pH 7), SSA, sample, and "RBC Mix" as above Tris was added and the samples were agitated at room temperature for 25 min. 20 μl Tris and 10 μl mBBr were added; the derivatization proceeds as above.
(§2) HPLC Analysis of Cellular Thiols. Samples were chromatographed on an Altex Ultrasphere ODS reverse phase column (5μ; 4.6 mm×25 cm), using one of three gradients: (1) Buffer A: 12.8% MeOH, 0.25% acetic acid, 87.75% H2 O, pH 3.9. (2) Buffer B: 90.0% MeOH, 0.25% acetic acid, 9.75% H2 O (no pH Adjustment). (3) Gradient 1: Initial, 100% A, linear gradient to 50% B at 25 min., linear gradient to 100% B at 35 min., wash with 100% B to 39.5 min.; step to 100% A at 40 min.; equilibration with 100% A to 48 min. Gradient 2: Initial, 100% A, linear gradient to 75% B at 25 min., remainder identical to Gradient 1. Gradient 3: Initial, 100% A, linear gradient to 65% A, 35% B at 25 minutes, remainder identical to gradient 1. Flow rates were 1 ml/min.
Whole blood was collected with EDTA or DTPA (0.5M, pH 7) as anticoagulant (0.4 ml/8-12 ml blood). Plasma and buffy coat were removed after centrifugation and the erythrocytes washed 3 times with 1-2 vol PBS/5 mM DTPA or EDTA. Packed erythrocytes were suspended in one-half vol. PBS. To each suspension was one-third vol. GSH, GSH-ME or GSH-DE (80 mM, pH 7). After incubation at 37° C. for the indicated times, aliquots were removed, washed (3-4×) with PBS/EDTA/DTPA, lysed with one volume 0.435M acetic acid, protein-precipitated with one volume 10% SSA/2 mM DTPA, and centrifuged to remove cell debris. Supernatants were derivatized for HPLC analysis as described in Materials and Methods.

Assay [4] relates to Human Peripheral Blood Mononuclear Cells. The following applies: for Thiol Levels, thiol found GSH / Thiol Levels, Total / Thiol Levels, thiol found GSH-ME: isolated PBM, 0.3 ml 80 mM thiol to 0.9 ml cells, 37° C. The procedure:
(§3) T Cell and PBM Lysates: 120 μl 4 mM DTPA, total 360 μl sample/4.31% SSA (containing 0.5 mM DTPA), 100 μl Tris, 5μ mBBr; 20 min. in the dark, 15 μl glacial acetic acid.
as §2
PBM were isolated from whole blood (see Tables 1 and 3) washed with PBS, and re-suspended in PBS. To 0.9 ml cell suspension (5-8×10^6 cells) was added 0.3 ml of 80 mM GSH, GSH-ME or GSH-DE at pH 7. After incubation at 37° C. for the indicated times, the cells were recovered by centrifugation, washed with 14 ml PBS (2×), and lysed by addition of 4.31% of SSA/0.5 mM DTPA and 2-3 freeze-thaw cycles. After centrifugation, supernatants were derivatized for HPLC analysis.

In assay [5] the test system is Human Erythrocytes. Conditions: whole blood + one-half volume 120 mM thiol, 30 minutes, 37° C. The procedure: as §1, §2
Whole blood (see Table 1) was mixed with one-half volume of 120 mM GSH, GSH-ME, or GSH-DE at pH 7. The samples were incubated for 30 minutes at 37° C. and then centrifuged. After removal of plasma and buffy coat, the erythrocytes were washed and processed as described in Table 1.

Assay [6] relates to Human Peripheral Blood Mononuclear Cells. Conditions: 6 ml whole blood + 3 ml 60 mM thiol, 30 min, 37° C.; PBM. The procedure: as §3, §2
6 mls. whole blood (see Table 1) was mixed with 3 ml of 60 mM GSH, GSH-ME or GSH-DE at pH 7. After 30 min incubation at 37° C., PBM were isolated by Ficoll-Hypaque density gradient centrifugation. Cells were washed with 14 ml PBS (2-3) and lysed with 4.31% SSA/0.5 mM DTPA (400 μl). After centrifugation, the supernatants were derivatized for HPLC analysis.

Where two headings read alike, the source gives them in different places.

Regarding `CCCCS(=N)(=O)CCC(N)C(=O)O` [BSO, L-buthionine sulfoximine], in assay [1] (fasted hamsters, BSO 6 mmol/kg I.P. 2 hours before thiol 5 mmol/kg, kidney), the “Kidney thiol found GSH” value is 1.00 ± 0.19 µmol/g. Moreover, in assay [1] (fasted hamsters, BSO 6 mmol/kg I.P. 2 hours before thiol 5 mmol/kg, liver), the “Liver thiol found GSH” value came to 5.10 ± 0.51 µmol/g. For the same molecule, the “Thiol Levels, thiol found GSH” value is 2.39 ± 0.09 nmol/10^7 cells in assay [2] (7 min, donor A) and under 0.6 nmol/10^7 cells in assay [2] (90 min, donor B).

For `N[C@@H](CCC(=O)N[C@@H](CS)C(=O)NCC(=O)O)C(=O)O` [GSH, L-γ-glutamyl-L-cysteinyl-glycine], the “Thiol Levels, thiol found GSH” value in the assay on Human Erythrocytes [3] (7 min) is listed as 1.91 ± 0.05 mM; in the assay on Human Erythrocytes [3] (45 min), 2.04 ± 0.06 mM; in the assay on Human Erythrocytes [3] (90 min) it was 1.83 ± 0.07 mM; in assay [4] (7 min, donor A), 1.86 nmol/10^6 cells; in assay [4] (7 min, donor B), 1.51 nmol/10^6 cells; in assay [4] (45 min, donor B), 1.16 ± 0.06 nmol/10^6 cells. In assay [4] (90 min, donor A), the “Thiol Levels, thiol found GSH” value is reported as 1.60 nmol/10^6 cells. Besides, the “Thiol Levels Found, GSH” value in the assay with Human Erythrocytes [5] amounted to 2.12 ± 0.47 mM. The “Thiol Levels Found, Total” value with Human Erythrocytes [5] is recorded as 2.12 ± 0.47 mM.

For `CCOC(=O)CNC(=O)[C@H](CS)NC(=O)CC[C@H](N)C(=O)O` [GSH-ME, glutathione monoethyl (glycyl) ester], the “Thiol Levels, Total” value is 2.65 ± 0.31 mM with Human Erythrocytes [3] (7 min); 3.49 ± 0.35 mM with Human Erythrocytes [3] (45 min); 3.57 ± 0.38 mM in the assay with Human Erythrocytes [3] (90 min); 3.32 ± 0.19 nmol/10^6 cells in assay [4] (7 min, donor A); 4.39 ± 0.25 nmol/10^6 cells in assay [4] (45 min, donor B); 10.7 ± 1.3 nmol/10^6 cells in assay [4] (90 min, donor A). For the same molecule, the “Thiol Levels, thiol found GSH” value is 1.72 ± 0.27 mM in the assay with Human Erythrocytes [3] (7 min); 1.83 ± 0.31 mM in the assay with Human Erythrocytes [3] (45 min); 1.90 ± 0.30 mM in the assay on Human Erythrocytes [3] (90 min); 2.05 ± 0.08 nmol/10^6 cells in assay [4] (7 min, donor A); 1.64 ± 0.06 nmol/10^6 cells in assay [4] (45 min, donor B); 3.45 ± 0.39 nmol/10^6 cells in assay [4] (90 min, donor A). Moreover, the “Thiol Levels, thiol found GSH-ME” value is given as 0.932 ± 0.04 mM in the assay with Human Erythrocytes [3] (7 min); 1.66 ± 0.04 mM with Human Erythrocytes [3] (45 min); 1.67 ± 0.08 mM in the assay with Human Erythrocytes [3] (90 min); 1.27 ± 0.11 nmol/10^6 cells in assay [4] (7 min, donor A); 2.75 ± 0.19 nmol/10^6 cells in assay [4] (45 min, donor B); 7.23 ± 0.88 nmol/10^6 cells in assay [4] (90 min, donor A). In addition, the “total RBC thiol levels” value with Human Erythrocytes [3] (summary of Table 1) is on record as “about 3 mM”. The “total thiols in human PBM” value in assay [4] (in 90 min, text summary of Table 4) is listed as 10.6 mM. Besides, the figures for the “Thiol Levels Found, GSH” value (in assay [6]; in the assay with Human Erythrocytes [5]) were 1.46 nmol/10^6 cells and 2.35 ± 0.52 mM, respectively. The “Thiol Levels Found, GSH-ME” value in assay [6] is listed as 2.08 nmol/10^6 cells; in the assay on Human Erythrocytes [5], 3.45 ± 0.73 mM. Also, the “Thiol Levels Found, Total” value came out at 3.54 nmol/10^6 cells in assay [6] and 5.80 ± 1.25 mM in the assay on Human Erythrocytes [5]. The “Blood plasma levels of GSH” value in assay [1] (hamsters, 5 mmol/kg after BSO) is reported as “not affected”.
